# ChEMBL document CHEMBL1800013, “Small molecule inhibitors of SHP2 tyrosine phosphatase discovered by virtual screening” (Bioorg Med Chem Lett, 2011)
# The source made the active and inactive calls. No cut-off for these calls is given here.
# Biological target: T1, Tyrosine-protein phosphatase non-receptor type 11 (Homo sapiens) (UniProt Q06124)
# T1 sequence (whole entry): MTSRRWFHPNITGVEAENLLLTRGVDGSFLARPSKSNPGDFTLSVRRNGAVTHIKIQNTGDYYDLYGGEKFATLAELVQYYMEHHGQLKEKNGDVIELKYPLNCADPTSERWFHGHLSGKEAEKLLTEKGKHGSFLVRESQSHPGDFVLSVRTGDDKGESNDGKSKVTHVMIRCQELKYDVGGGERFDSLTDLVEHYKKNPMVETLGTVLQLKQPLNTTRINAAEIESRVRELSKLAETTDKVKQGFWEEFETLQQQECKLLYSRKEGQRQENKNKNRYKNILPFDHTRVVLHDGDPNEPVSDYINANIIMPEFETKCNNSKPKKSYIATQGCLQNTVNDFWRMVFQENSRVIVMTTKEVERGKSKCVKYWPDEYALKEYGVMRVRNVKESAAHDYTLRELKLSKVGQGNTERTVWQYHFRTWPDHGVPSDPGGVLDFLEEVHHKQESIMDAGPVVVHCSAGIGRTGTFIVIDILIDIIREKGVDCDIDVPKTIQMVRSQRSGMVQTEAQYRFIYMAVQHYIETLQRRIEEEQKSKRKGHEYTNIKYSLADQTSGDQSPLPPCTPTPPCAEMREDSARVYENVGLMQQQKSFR
# Assay: Inhibition of SHP2 catalytic domain assessed as inhibition of pNPP to p-nitrophenol conversion at 50 uM after 5 mins by spectrophotometry
row,Compound,inhibition [%]
1,O=C(O)Cc1ccc2[nH]c3ccc(CC(=O)O)cc3c2c1,52.5
2,O=C(O)c1ccc(CNS(=O)(=O)c2ccc(C(=O)O)cc2)cc1,40.5
3,O=C(O)c1cc(S(=O)(=O)Nc2ccccc2C(=O)O)ccc1Br,4.5
4,Cc1cc(C(=O)O)ccc1NC(=O)C1CC=CCC1C(=O)O (centres undefined),13
5,Cc1ccccc1NS(=O)(=O)c1cccc(C(=O)Nc2ccccc2C(=O)O)c1,50.5
6,CC(=O)N(c1ccc2oc3c(c2c1)CCCC3)S(=O)(=O)c1ccc(C(=O)O)cc1,74.5
7,O=C(O)c1ccccc1NS(=O)(=O)c1cccc(C(=O)N2CCCc3ccccc32)c1,47
8,O=C(O)c1cc(N/C(=N\S(=O)(=O)c2ccccc2)c2ccccc2)ccc1O,12.5
9,O=C(O)Cc1c(C(=O)O)[nH]c2ccc(C(=O)O)cc12,1
10,O=C(O)c1ccc(NS(=O)(=O)c2cccc(C(=O)Nc3cccc(C(=O)O)c3)c2)cc1,44
11,O=C(O)c1ccccc1NS(=O)(=O)c1cccc2nsnc12,0
12,CC1CCN(S(=O)(=O)c2ccc3[nH]cc(C(=O)O)c(=O)c3c2)CC1,0.5
13,O=C(O)c1ccccc1NC(=O)c1ccccc1-c1ccccc1C(=O)O,38
14,O=C(O)c1cccc(N/C(=N\S(=O)(=O)c2ccc(Cl)cc2)c2ccccc2)c1,10.5
15,O=C(O)c1ccc(C2(c3ccc(C(=O)O)cc3)OC(=O)c3ccccc32)cc1,1.5
16,COc1cc(/C=C2\SC(=S)N(C(CC(=O)O)C(=O)O)C2=O)ccc1O (centres undefined),69.5
17,O=C(CC(Cc1ccccc1)C(=O)O)Nc1ccc([N+](=O)[O-])cc1 (centres undefined),1
18,CC(=O)c1c(C)oc2ccc(NS(=O)(=O)c3cccc(C(=O)O)c3)cc12,71.5
19,O=C(O)c1ccc(NC(=O)C2CC=CCC2C(=O)O)cc1O (centres undefined),4.5
20,CC(=O)Nc1ccc(OS(=O)(=O)c2cccc(C(=O)O)c2)cc1,3.5
21,CS(=O)(=O)N(CC(=O)Nc1ccccc1C(=O)O)c1ccc(F)cc1,24
22,O=C(O)c1cccc(NS(=O)(=O)c2ccc(Cl)c(C(=O)O)c2)c1,7
23,O=C(O)c1ccc(NCc2ccccc2)c(NC(=O)C2CC=CCC2C(=O)O)c1 (centres undefined),43
24,Cc1ccc(C(=O)O)cc1NC(=O)[C@H]1CC=CC[C@@H]1C(=O)O,6

# Further lines, results first:
row,inhibition [%],Compound
1,4.5,O=C(O)c1cccc(NS(=O)(=O)c2ccc3c4c(cccc24)C(=O)N3)c1
2,41,COc1ccc(/C=C2\C(=O)N(c3ccc(C(=O)O)cc3)N=C2C)cc1[N+](=O)[O-]
3,28,Cc1ccc(/C=C/C(=O)O)cc1S(=O)(=O)Nc1ccc(C(=O)O)cc1
4,8.5,O=C(O)c1ccc(/N=N/c2c(O)c(C(=O)O)cc3ccccc23)cc1
5,34.5,O=C(O)c1ccc(NS(=O)(=O)c2cc(C(=O)O)ccc2Br)cc1
6,5.5,O=C(O)/C=C/c1cccc(NS(=O)(=O)c2ccc(C(=O)O)cc2)c1
7,51,CCOc1cc(/C=N/Nc2ccc(S(=O)(=O)O)cc2)ccc1O
8,95,O=C(O)c1cccc(-c2ccc(/C=C/[N+](=O)[O-])o2)c1
9,91.5,O=[N+]([O-])c1ccc(/C=N/Nc2ccc(S(=O)(=O)O)cc2)cc1
10,1.5,COc1ccc(C2Nc3ccc(C(=O)O)cc3C3C=CCC32)cc1[N+](=O)[O-] (centres undefined)

# Biological target: Tyrosine-protein phosphatase non-receptor type 6 (Homo sapiens, UniProt P29350)
# Assay: Inhibition of SHP1
# Sequence of Tyrosine-protein phosphatase non-receptor type 6 (P29350 whole entry): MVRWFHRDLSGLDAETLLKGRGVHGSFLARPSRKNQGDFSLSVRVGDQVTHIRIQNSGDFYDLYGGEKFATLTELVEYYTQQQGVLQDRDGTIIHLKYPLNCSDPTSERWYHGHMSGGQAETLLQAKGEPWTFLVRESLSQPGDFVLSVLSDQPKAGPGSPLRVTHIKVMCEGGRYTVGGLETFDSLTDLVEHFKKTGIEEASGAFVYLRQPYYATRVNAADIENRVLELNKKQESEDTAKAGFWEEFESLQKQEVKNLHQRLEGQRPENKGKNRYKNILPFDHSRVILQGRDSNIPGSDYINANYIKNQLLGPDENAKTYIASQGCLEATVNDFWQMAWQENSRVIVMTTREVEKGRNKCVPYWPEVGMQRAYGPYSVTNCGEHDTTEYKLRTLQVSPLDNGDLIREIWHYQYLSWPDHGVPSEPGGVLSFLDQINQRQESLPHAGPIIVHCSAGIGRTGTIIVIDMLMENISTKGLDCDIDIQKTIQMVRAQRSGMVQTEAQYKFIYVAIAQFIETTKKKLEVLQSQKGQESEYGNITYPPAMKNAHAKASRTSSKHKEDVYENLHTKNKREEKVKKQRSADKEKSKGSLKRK
row,IC50 [µM],Compound
1,160,CC(=O)N(c1ccc2oc3c(c2c1)CCCC3)S(=O)(=O)c1ccc(C(=O)O)cc1
2,85,CC(=O)c1c(C)oc2ccc(NS(=O)(=O)c3cccc(C(=O)O)c3)cc12

# Biological target: T2, Tyrosine-protein phosphatase non-receptor type 1 (Homo sapiens, UniProt P18031)
# T2 sequence (P18031 whole entry): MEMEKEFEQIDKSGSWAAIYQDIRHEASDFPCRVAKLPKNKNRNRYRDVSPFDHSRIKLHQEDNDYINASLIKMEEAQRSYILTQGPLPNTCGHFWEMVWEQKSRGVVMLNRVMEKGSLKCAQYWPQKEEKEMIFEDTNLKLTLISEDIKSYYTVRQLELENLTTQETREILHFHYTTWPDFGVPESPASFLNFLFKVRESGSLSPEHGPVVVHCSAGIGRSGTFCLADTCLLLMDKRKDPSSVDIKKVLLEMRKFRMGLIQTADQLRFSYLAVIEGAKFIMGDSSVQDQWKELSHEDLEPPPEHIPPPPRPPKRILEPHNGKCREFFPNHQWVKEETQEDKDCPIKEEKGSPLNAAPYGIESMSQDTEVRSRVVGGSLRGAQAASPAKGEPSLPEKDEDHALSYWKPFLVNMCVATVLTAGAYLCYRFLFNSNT
# Assay: Inhibition of PTP1B
row,IC50 [µM],Compound
1,120,CC(=O)N(c1ccc2oc3c(c2c1)CCCC3)S(=O)(=O)c1ccc(C(=O)O)cc1
2,38,CC(=O)c1c(C)oc2ccc(NS(=O)(=O)c3cccc(C(=O)O)c3)cc12

# Biological target: T3, Tyrosine-protein phosphatase non-receptor type 11 (Homo sapiens, UniProt Q06124)
# T3 sequence (Q06124 whole entry): T1 sequence (whole entry)
# Assay: Inhibition of SHP2 catalytic domain assessed as inhibition of pNPP to p-nitrophenol conversion after 5 mins by spectrophotometry
row,IC50 [µM],Compound
1,181,CC(=O)N(c1ccc2oc3c(c2c1)CCCC3)S(=O)(=O)c1ccc(C(=O)O)cc1
2,155,O=C(O)C1=NN(c2ccc(S(=O)(=O)O)cc2)C(=O)C1
3,41,Cc1cc(S(=O)(=O)O)ccc1N1N=C(C(=O)O)CC1=O
4,176,CC(=O)c1c(C)oc2ccc(NS(=O)(=O)c3cccc(C(=O)O)c3)cc12

# Biological target: T1, Tyrosine-protein phosphatase non-receptor type 11 (Homo sapiens)
# Assay: Inhibition of SHP2 catalytic domain assessed as inhibition of pNPP to p-nitrophenol conversion at 1000 uM after 5 mins by spectrophotometry
row,inhibition,Compound
1,inactive,CC1=NN(c2ccc(S(=O)(=O)O)cc2C)C(=O)C1
2,inactive,O=C(O)C1=NN(c2ccccc2)C(=O)C1
